According to patent US20260176320A1, “MODULATORS OF G-PROTEIN COUPLED RECEPTORS” (priority 2018, published 2026):
Like-named read-outs stand apart in the source and are kept apart here.

How the values were obtained:
Format in all cases: cell-based
[1] = molecular target: T1, GIP-R (Homo sapiens, UniProt P48546); assay: HitHunter cAMP assay (GIP-R); conditions: Table 3A, cAMP; for Emax: read-out: (Emax) GIP-R
T1 sequence (P48546 22-466): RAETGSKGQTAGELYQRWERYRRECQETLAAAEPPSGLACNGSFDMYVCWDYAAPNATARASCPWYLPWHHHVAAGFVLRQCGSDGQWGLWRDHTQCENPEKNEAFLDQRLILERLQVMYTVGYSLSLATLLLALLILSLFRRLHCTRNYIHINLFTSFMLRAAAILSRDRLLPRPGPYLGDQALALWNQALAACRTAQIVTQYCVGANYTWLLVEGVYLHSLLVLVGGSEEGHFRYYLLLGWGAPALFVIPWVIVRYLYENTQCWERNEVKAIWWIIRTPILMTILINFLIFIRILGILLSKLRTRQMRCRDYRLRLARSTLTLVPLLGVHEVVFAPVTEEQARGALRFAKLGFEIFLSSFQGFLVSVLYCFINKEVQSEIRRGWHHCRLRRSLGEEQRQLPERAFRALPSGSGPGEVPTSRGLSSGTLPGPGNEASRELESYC
Procedure, shortened: (§1)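 Suspension cells (10,000/well) in HBSS with 10 mM HEPES, 625 μM IBMX, 0.2% BSA exposed to 22-point 2-fold agonist series in duplicate for 30 min at room temperature. cAMP measured by antibody immunocompetition with overnight development, luminescence read-out.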

[2] = molecular target: T2, GLP-1R (Homo sapiens, UniProt P43220); assay: PathHunter β-arrestin assay
T2 sequence (P43220 24-463): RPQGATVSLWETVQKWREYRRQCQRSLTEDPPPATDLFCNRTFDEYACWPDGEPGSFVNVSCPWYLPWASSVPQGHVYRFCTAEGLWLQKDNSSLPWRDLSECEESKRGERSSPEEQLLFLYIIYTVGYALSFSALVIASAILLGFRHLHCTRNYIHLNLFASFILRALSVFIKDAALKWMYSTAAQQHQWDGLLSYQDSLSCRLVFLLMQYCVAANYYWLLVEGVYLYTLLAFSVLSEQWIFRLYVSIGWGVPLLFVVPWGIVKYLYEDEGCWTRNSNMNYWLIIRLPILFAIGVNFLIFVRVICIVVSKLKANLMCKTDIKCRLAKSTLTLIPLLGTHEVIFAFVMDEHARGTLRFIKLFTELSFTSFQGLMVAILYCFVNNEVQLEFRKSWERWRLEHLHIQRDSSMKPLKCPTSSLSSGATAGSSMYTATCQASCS
Procedure, shortened: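 Cells (5,000/well) plated overnight, then exposed to a 22-point 2-fold agonist dilution series in medium with 0.2% BSA for 90 min at 37 °C, 5% CO2. PathHunter detection reagent added; after 3 h at room temperature in the dark, luminescence read.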

[3] = molecular target: T2, GLP-1R; assay: HitHunter cAMP assay (GLP-1R); conditions: Table 3A, cAMP; for Emax: read-out: (Emax) GLP-1R
Procedure, shortened: as §1

`CCCCCCCCCCCCCCCC(=O)N[C@@H](CCC(=O)NCCCC[C@H](NC(=O)[C@H](CO)NC(=O)[C@@H]1CCCN1C(=O)[C@@H]1CCCN1C(=O)[C@@H]1CCCN1C(=O)[C@H](C)NC(=O)CNC(=O)[C@H](CO)NC(=O)[C@H](CO)NC(=O)[C@@H]1CCCN1C(=O)CNC(=O)CNC(=O)[C@H](C)NC(=O)[C@H](CC(C)C)NC(=O)[C@H](CC(C)C)NC(=O)[C@H](Cc1c[nH]c2ccccc12)NC(=O)[C@H](CC(N)=O)NC(=O)[C@@H](NC(=O)[C@H](Cc1ccccc1)NC(=O)[C@H](CCC(=O)O)NC(=O)C(C)(C)NC(=O)[C@H](C)NC(=O)[C@H](C)NC(=O)[C@H](CCC(N)=O)NC(=O)[C@H](CCCCN)NC(=O)[C@H](CC(=O)O)NC(=O)[C@H](CC(C)C)NC(=O)[C@H](Cc1ccc(O)cc1)NC(=O)[C@@H](NC(=O)[C@H](CO)NC(=O)[C@H](Cc1ccc(O)cc1)NC(=O)[C@H](CC(=O)O)NC(=O)[C@H](CO)NC(=O)[C@@H](NC(=O)[C@H](Cc1ccccc1)NC(=O)[C@@H](NC(=O)CNC(=O)[C@H](CCC(=O)O)NC(=O)CSCC(=O)NCCn1cccc(C)c1=O)[C@@H](C)O)[C@@H](C)O)[C@@H](C)CC)C(C)C)C(N)=O)C(=O)O` [Compound 232] gave an EC50 ([1]; EC50 GIP-R/nM) of 1 to 10 nM, an Emax [1] of 78% and an EC50 [2] greater than 1000 nM. For the same compound, the EC50 ([3]; EC50 GLP-1R/nM) was 0.1 to 1 nM and the Emax [3] was 95%.
For `CCCCCCCCCCCCCCCC(=O)N[C@@H](CCC(=O)NCCCC[C@H](NC(=O)[C@H](CO)NC(=O)[C@@H]1CCCN1C(=O)[C@@H]1CCCN1C(=O)[C@@H]1CCCN1C(=O)[C@H](C)NC(=O)CNC(=O)[C@H](CO)NC(=O)[C@H](CO)NC(=O)[C@@H]1CCCN1C(=O)CNC(=O)CNC(=O)[C@H](C)NC(=O)[C@H](CC(C)C)NC(=O)[C@H](CC(C)C)NC(=O)[C@H](Cc1c[nH]c2ccccc12)NC(=O)[C@H](CC(N)=O)NC(=O)[C@@H](NC(=O)[C@H](Cc1ccccc1)NC(=O)[C@H](CCC(=O)O)NC(=O)C(C)(C)NC(=O)[C@H](C)NC(=O)[C@H](C)NC(=O)[C@H](CCC(N)=O)NC(=O)[C@H](CCCCN)NC(=O)[C@H](CC(=O)O)NC(=O)[C@H](CC(C)C)NC(=O)[C@H](Cc1ccc(O)cc1)NC(=O)[C@@H](NC(=O)[C@H](CO)NC(=O)[C@H](Cc1ccc(O)cc1)NC(=O)[C@H](CC(=O)O)NC(=O)[C@H](CO)NC(=O)[C@@H](NC(=O)[C@H](Cc1ccccc1)NC(=O)[C@@H](NC(=O)CNC(=O)[C@H](CCC(=O)O)NC(=O)CSCC(=O)NCCn1cc(C)ccc1=O)[C@@H](C)O)[C@@H](C)O)[C@@H](C)CC)C(C)C)C(N)=O)C(=O)O` [Compound 238], the EC50 ([1]; EC50 GIP-R/nM) was 1 to 10 nM, the Emax [1] was 82% and the EC50 [2] was greater than 1000 nM. The EC50 ([3]; EC50 GLP-1R/nM) was 0.1 to 1 nM and the Emax [3] was 95%.
`CCCCCCCCCCCCCCCC(=O)N[C@@H](CCC(=O)NCCCC[C@H](NC(=O)[C@H](CO)NC(=O)[C@@H]1CCCN1C(=O)[C@@H]1CCCN1C(=O)[C@@H]1CCCN1C(=O)[C@H](C)NC(=O)CNC(=O)[C@H](CO)NC(=O)[C@H](CO)NC(=O)[C@@H]1CCCN1C(=O)CNC(=O)CNC(=O)[C@H](C)NC(=O)[C@H](CC(C)C)NC(=O)[C@H](CC(C)C)NC(=O)[C@H](Cc1c[nH]c2ccccc12)NC(=O)[C@H](CC(N)=O)NC(=O)[C@@H](NC(=O)[C@H](Cc1ccccc1)NC(=O)[C@H](CCC(=O)O)NC(=O)C(C)(C)NC(=O)[C@H](C)NC(=O)[C@H](C)NC(=O)[C@H](CCC(N)=O)NC(=O)[C@H](CCCCN)NC(=O)[C@H](CC(=O)O)NC(=O)[C@H](CC(C)C)NC(=O)[C@H](Cc1ccc(O)cc1)NC(=O)[C@@H](NC(=O)[C@H](CO)NC(=O)[C@H](Cc1ccc(O)cc1)NC(=O)[C@H](CC(=O)O)NC(=O)[C@H](CO)NC(=O)[C@@H](NC(=O)[C@H](Cc1ccccc1)NC(=O)[C@@H](NC(=O)CNC(=O)[C@H](CCC(=O)O)NC(=O)CSCC(=O)NCCn1ccc(=O)[nH]c1=O)[C@@H](C)O)[C@@H](C)O)[C@@H](C)CC)C(C)C)C(N)=O)C(=O)O` [Compound 239] was tested, and the EC50 ([1]; EC50 GIP-R/nM) was 10 to 100 nM, the Emax [1] was 46% and the EC50 [2] was greater than 1000 nM. The EC50 ([3]; EC50 GLP-1R/nM) was 0.1 to 1 nM and the Emax [3] was 100%.
Compound `CCCCCCCCCCCCCCCC(=O)N[C@@H](CCC(=O)NCCCC[C@H](NC(=O)[C@H](CO)NC(=O)[C@@H]1CCCN1C(=O)[C@@H]1CCCN1C(=O)[C@@H]1CCCN1C(=O)[C@H](C)NC(=O)CNC(=O)[C@H](CO)NC(=O)[C@H](CO)NC(=O)[C@@H]1CCCN1C(=O)CNC(=O)CNC(=O)[C@H](C)NC(=O)[C@H](CC(C)C)NC(=O)[C@H](CC(C)C)NC(=O)[C@H](Cc1c[nH]c2ccccc12)NC(=O)[C@H](CC(N)=O)NC(=O)[C@@H](NC(=O)[C@H](Cc1ccccc1)NC(=O)[C@H](CCC(=O)O)NC(=O)C(C)(C)NC(=O)[C@H](C)NC(=O)[C@H](C)NC(=O)[C@H](CCC(N)=O)NC(=O)[C@H](CCCCN)NC(=O)[C@H](CC(=O)O)NC(=O)[C@H](CC(C)C)NC(=O)[C@H](Cc1ccc(O)cc1)NC(=O)[C@@H](NC(=O)[C@H](CO)NC(=O)[C@H](Cc1ccc(O)cc1)NC(=O)[C@H](CC(=O)O)NC(=O)[C@H](CO)NC(=O)[C@@H](NC(=O)[C@H](Cc1ccccc1)NC(=O)[C@@H](NC(=O)CNC(=O)[C@H](CCC(=O)O)NC(=O)CSCC(=O)NCCn1c(C)cccc1=O)[C@@H](C)O)[C@@H](C)O)[C@@H](C)CC)C(C)C)C(N)=O)C(=O)O` [Compound 240] has an EC50 ([1]; EC50 GIP-R/nM) of 1 to 10 nM, an Emax [1] of 60% and an EC50 [2] greater than 1000 nM. For the same compound, the EC50 ([3]; EC50 GLP-1R/nM) was 0.1 to 1 nM and the Emax [3] was 97%.
In the case of `CCCCCCCCCCCCCCCC(=O)N[C@@H](CCC(=O)NCCCC[C@H](NC(=O)[C@H](CO)NC(=O)[C@@H]1CCCN1C(=O)[C@@H]1CCCN1C(=O)[C@@H]1CCCN1C(=O)[C@H](C)NC(=O)CNC(=O)[C@H](CO)NC(=O)[C@H](CO)NC(=O)[C@@H]1CCCN1C(=O)CNC(=O)CNC(=O)[C@H](C)NC(=O)[C@H](CC(C)C)NC(=O)[C@H](CC(C)C)NC(=O)[C@H](Cc1c[nH]c2ccccc12)NC(=O)[C@H](CC(N)=O)NC(=O)[C@@H](NC(=O)[C@H](Cc1ccccc1)NC(=O)[C@H](CCC(=O)O)NC(=O)C(C)(C)NC(=O)[C@H](C)NC(=O)[C@H](C)NC(=O)[C@H](CCC(N)=O)NC(=O)[C@H](CCCCN)NC(=O)[C@H](CC(=O)O)NC(=O)[C@H](CC(C)C)NC(=O)[C@H](Cc1ccc(O)cc1)NC(=O)[C@@H](NC(=O)[C@H](CO)NC(=O)[C@H](Cc1ccc(O)cc1)NC(=O)[C@H](CC(=O)O)NC(=O)[C@H](CO)NC(=O)[C@@H](NC(=O)[C@H](Cc1ccccc1)NC(=O)[C@@H](NC(=O)CNC(=O)[C@H](CCC(=O)O)NC(=O)CSCC(=O)NCCn1[nH]c(=O)ccc1=O)[C@@H](C)O)[C@@H](C)O)[C@@H](C)CC)C(C)C)C(N)=O)C(=O)O` [Compound 241], the EC50 ([1]; EC50 GIP-R/nM) is reported as 10 to 100 nM, the Emax [1] is reported as 46% and the EC50 [2] is reported as greater than 1000 nM. It also gave an EC50 ([3]; EC50 GLP-1R/nM) of 1 to 10 nM and an Emax [3] of 100%.
`CCCCCCCCCCCCCCCC(=O)N[C@@H](CCC(=O)NCCCC[C@H](NC(=O)[C@H](CO)NC(=O)[C@@H]1CCCN1C(=O)[C@@H]1CCCN1C(=O)[C@@H]1CCCN1C(=O)[C@H](C)NC(=O)CNC(=O)[C@H](CO)NC(=O)[C@H](CO)NC(=O)[C@@H]1CCCN1C(=O)CNC(=O)CNC(=O)[C@H](C)NC(=O)[C@H](CC(C)C)NC(=O)[C@H](CC(C)C)NC(=O)[C@H](Cc1c[nH]c2ccccc12)NC(=O)[C@H](CC(N)=O)NC(=O)[C@@H](NC(=O)[C@H](Cc1ccccc1)NC(=O)[C@H](CCC(=O)O)NC(=O)C(C)(C)NC(=O)[C@H](C)NC(=O)[C@H](C)NC(=O)[C@H](CCC(N)=O)NC(=O)[C@H](CCCCN)NC(=O)[C@H](CC(=O)O)NC(=O)[C@H](CC(C)C)NC(=O)[C@H](Cc1ccc(O)cc1)NC(=O)[C@@H](NC(=O)[C@H](CO)NC(=O)[C@H](Cc1ccc(O)cc1)NC(=O)[C@H](CC(=O)O)NC(=O)[C@H](CO)NC(=O)[C@@H](NC(=O)[C@H](Cc1ccccc1)NC(=O)[C@@H](NC(=O)CNC(=O)[C@H](CCC(=O)O)NC(=O)CCCC(=O)NCCN1CCOCC1=O)[C@@H](C)O)[C@@H](C)O)[C@@H](C)CC)C(C)C)C(N)=O)C(=O)O` [Compound 243] showed an Emax [1] of 20%, an EC50 ([1]; read-out: EC50 GIP-R/nM) of 10 to 100 nM and an EC50 ([2]; PathHunter β-arrestin assay, read-out: β-arrestin activity EC50) greater than 1000 nM. It also gave an Emax [3] of 103% and an EC50 ([3]; read-out: EC50 GLP-1R/nM) of less than 0.1 nM.
